Reference: patent US8008007B2, “S-adenosyl-L-methionine analogs with extended activated groups for transfer by methyltransferases” (RWTH Aachen, priority 2005, dated 2011)

How the values were obtained:
Assay type in all cases: biochemical
[1] = biological target: T1, M.TaqI (Thermus aquaticus, UniProt P14385); experiment: DNA protection assay with M.TaqI (wild-type) on phage lambda DNA; conditions: 1 μg phage lambda DNA, cofactor 300 μM, 60° C. for 4 h, then R.TaqI; 1 u = minimal enzyme amount fully protecting 1 μg DNA
T1 construct: made in house
Excerpt: (§1) Transfer kinetics of the activated ethyl (—CH2CH3), propyl (—CH2CH2CH3), prop-2-enyl (—CH2CH═CH2), prop-2-ynyl (—CH2C≡CH), but-2-ynyl (—CH2C≡CCH3), pent-2-ynyl (—CH2C≡CCH2CH3) and benzyl group (—CH2C6H5) from cofactors 3-9 by the DNA adenine-N6 methyltransferase M.TaqI and its variant V21 G, the DNA cytosine-C5 methyltransferase M.HhaI and its variant Q82A, the DNA cytosine-N4 methyltransferase M.BcnIB and the DNA cytosine-C5 methyltransferase M.SssI variant Q142A to phage lambda DNA (48502 base pairs) were investigated using a DNA protection assay. This assay makes use of the fact that DNA methyltransferase-catalyzed modifications of nucleobases within the recognition sequences of restriction endonucleases can protect the DNA against fragmentation by these enzymes. […] Unmodified DNA containing 5′-TCGA-3′ recognition sequences is readily fragmentated by R.TaqI. After DNA modification by M.TaqI in the presence of a cofactor with an activated group Z—R modified 5′-TCGA^Z—R-3′ sequences are formed and, as a result, R.TaqI is unable to fragment the modified DNA. Occurrence of fragmentation is then analyzed by agarose gel electrophoresis.
(§2) By varying the amounts of DNA methyltransferase, this assay is used to investigate the enzymatic activities of the different DNA methyltransferases with cofactors 3-9 and compare them to the enzymatic activities with the natural cofactor 1. The minimal amount of DNA methyltransferase needed to fully protect 1 μg of phage lambda DNA against restriction endonuclease fragmentation under the given experimental conditions is defined as one enzyme unit (u).
(§3) Afterwards a solution (30 μL) containing R.TaqI restriction endonuclease (40 u, MBI Fermentas), bovine serum albumin (0.166 mg/mL) and buffer (16.6 mM Tris hydrochloride, 166 mM sodium chloride, 8.3 mM magnesium chloride, pH 8.0) was added to each dilution and incubation at 60-65° C. was continued for 15 min. Loading buffer (10 μL, 0.25% bromphenol blue, 30% glycerol) was added to each sample, and aliquots (12 μL) were analyzed for the degree of protection by agarose gel (1%) electrophoresis. Parallel control experiments were performed with phage lambda DNA in the absence of M.TaqI and in the presence of M.TaqI (200 ng).
Afterwards a solution (10 μL) containing R.TaqI restriction endonuclease (10 u, MBI Fermentas), bovine serum albumin (0.1 mg/mL) and buffer (33 mM Tris acetate, 66 mM potassium acetate, 10 mM magnesium acetate, pH 7.9) was added to each dilution and incubation was continued at 65° C. for 1 h. […] Parallel control experiments were performed with phage lambda DNA in the absence of M.TaqI and in the presence of M.TaqI (180 ng).

[2] = biological target: T2, M.TaqI-V21G (Thermus aquaticus, UniProt P14385, V21G); experiment: DNA protection assay with M.TaqI variant V21G on phage lambda DNA; conditions: 1 μg phage lambda DNA, cofactor 300 μM, 60° C. for 4 h, then R.TaqI
T2 construct: made in house
Excerpt: as §1, §2, §3
Therefore, the codon for V21 was changed to a codon for glycine by standard PCR mutagenesis (Ho et al., (1989) Gene 77, 51-59) and the correct DNA sequence of the complete gene was verified by DNA sequencing. […] The DNA protection assay with the V21G variant was performed as described for the wild type (Example 3A.1).

[3] = biological target: T1, M.TaqI; experiment: Modification of adenine-N6 in duplex oligodeoxynucleotide I.II by M.TaqI, nucleoside analysis by HPLC/ESI-MS; conditions: 37° C. over night, near-stoichiometric enzyme
Excerpt: Transfer of the activated ethyl (CH2CH3), propyl (CH2CH2CH3), prop-2-enyl (CH2CHCH2), prop-2-ynyl group (CH2CCH), but-2-ynyl (CH2CCCH3), pent-2-ynyl (CH2CCCH2CH3) or benzyl group (CH2C6H5) from cofactors 3-9 by the DNA adenine-N6 methyltransferase M.TaqI, the DNA cytosine-C5 methyltransferase M.HhaI variant Q82A or the DNA cytosine-N4 methyltransferase M.BcnIB to DNA was first investigated using short duplex oligodeoxynucleotides as substrates. After enzymatic transfer the duplex oligodeoxynucleotides were enzymatically fragmented and the resulting modified nucleosides were analyzed by reversed-phase HPLC coupled with ESI-MS.
M.TaqI was denatured by heating to 95° C. for 10 min and removed by centrifugation ([…], 2 min). The modified duplex oligodeoxynucleotides I^Z—R-II were desalted by gel filtration (NAP-5 column, Amersham Biosciences, Freiburg, Germany), eluted with water (1 mL) and lyophilized.
The modified duplex oligodeoxynucleotides I^Z—R-II were dissolved in buffer (100 μL, 10 mM Tris hydrochloride, 10 mM magnesium chloride, 1 mM zinc acetate, pH 7.5) containing Nuclease PI (1500 u, Sigma, Taufkirchen, Germany) and calf intestine alkaline phosphatase (30 u, MBI Fermentas, St. Leon-Rot, Germany) and incubated at 37° C. for 4 h. Nucleosides were analyzed by reversed-phase HPLC (Symmetry-C18 5 μm, 100 Å, 250×4.6 mm, equipped with a Symmetry-C18 5 μm, 100 Å, 20×4.6 mm pre-column, Waters, Eschborn, Germany). Compounds were eluted with acetonitrile (5% for 7 min, followed by linear gradients to 6% in 15 min, to 35% in 8 min and to 70% in 2 min) in triethylammonium acetate buffer (10 mM, pH 7.0) at a flow of 1 mL/min and detected at 254 nm.
For HPLC-coupled ESI-MS measurements compounds were eluted with methanol (0% for 3 min, followed by a linear gradient to 100% in 22 min) in ammonium formate buffer (20 mM, pH 3.5). A post-column mobile phase modification (equal co-flow of 96% methanol, 4% formic acid) was used to enhance the detection efficiency of 2′-deoxyadenosine and its derivatives. Mass spectra were recorded in 200-370 m/z range.
The hemimethylated duplex oligodeoxynucleotide I.II (compare Scheme 5, Example 2A) was produced by mixing equal molar amounts of complementary single-stranded oligodeoxynucleotide I (5′-GCCGCTCGATGCCG-3′) (SEQ. ID NO. 1) and II (5′-CGGCATCGA^MeGCGGC-3′, A^Me=N6-methyl-2′-deoxyadenosine) (SEQ ID NO. 2) in water, heating at 85° C. for 5 min and slow cooling to room temperature. […] The solution was heated to 95° C. for 10 min, supplemented with Proteinase K and incubated at 55° C. for 2 h. Hydrolysis products were removed by gel filtration (G-25 column, Amersham Biosciences).
The obtained solution was treated with buffer ( 1/10 volume, 100 mM Tris hydrochlorid, 100 mM magnesium chloride, 10 mM zinc acetate, pH 7.5) containing Nuclease P1 (1.14 u, Sigma, Taufkirchen, Germany) and calf intestine alkaline phosphatase (18 u, MBI Fermentas), incubated at 42° C. for 4 h and passed through a Microcon YM-3 spin column (Amicon). Nucleosides were analyzed by reversed-phase HPLC (Discovery HS C18 75×2.1 mm, 3 μm, equipped with a Supelguard Discovery HS C18 20×2.1 mm, 5 μm, pre-column, Supelco, Germany) coupled with a mass spectrometric detector (HP 1100 series ESI-MS equipped with single quadruple). Compounds were eluted with methanol (0% for 3 min, followed by linear gradients to 20% in 15 min and to 80% in 2 min) in ammonium formate buffer (20 mM, pH 3.5) at a flow of 0.3 mL/min. For on-line mass spectrometric detection post-column mobile phase modification (equal co-flow of 96% methanol, 4% formic acid and 1 mM sodium hydroxide) was used to enhance the detection efficiency of 2′-deoxyadenosine, 2′-deoxycytidine and their derivatives. Mass spectra were recorded in 50-600 m/z range.

[4] = biological target: T3, M.HhaI (Haemophilus parahaemolyticus, UniProt P05102); experiment: DNA protection assay with M.HhaI (wild-type) on phage lambda DNA; conditions: 1.16 μg phage lambda DNA, cofactor 300 μM, 37° C. for 4 h, then R.Hin6I; pH 7.4 (pH 6.0 for cofactor 6)
T3 construct: made in house
Excerpt: as §1, §2
(§4) Afterwards, the reactions were stopped by heating to 80° C. for 10 min. […] Parallel control experiments were performed with phage lambda DNA in the absence of M.HhaI and in the presence of M.HhaI (278 ng).

[5] = biological target: T4, M.HhaI-Q82A (Haemophilus parahaemolyticus, UniProt P05102, Q82A); experiment: DNA protection assay with M.HhaI variant Q82A on phage lambda DNA; conditions: 1.16 μg phage lambda DNA, cofactor 300 μM, 37° C. for 4 h, then R.Hin6I; pH 7.4 (pH 6.0 for cofactor 6)
T4 construct: made in house
Excerpt: as §1, §2, §4
The DNA protection assay with the M.HhaI variant Q82A (see Example 2B) was performed as described for the wild type enzyme (Example 3B.1).

[6] = test system: M.BcnIB; experiment: DNA protection assay with M.BcnIB (wild-type) on phage lambda DNA; conditions: 1.10 μg phage lambda DNA, cofactor 300 μM, 37° C. for 4 h, then R.BcnI; pH 7.4 (pH 6.0 for cofactor 6)
Excerpt: as §1, §2
Afterwards the reactions were stopped by heating to 80° C. for 10 min. A solution (10 μL) containing R.BcnI restriction endonuclease (12 u, MBI Fermentas), bovine serum albumin (0.1 mg/mL) and buffer (33 mM Tris acetate, 66 mM potassium acetate, 26.5 mM magnesium chloride, pH 7.9) was added to each dilution and incubation at 37° C. was continued for 1 h. […] Parallel control experiments were performed with phage lambda DNA in the absence of M.BcnIB and in the presence of M.BcnIB (144 ng).

[7] = biological target: T5, M.SssI-Q142A (Spiroplasma monobiae, UniProt P15840, Q142A); experiment: DNA protection assay with M.SssI variant Q142A on phage lambda DNA; conditions: 1 μg phage lambda DNA, cofactor 300 μM, 37° C. for 4 h, then R.BstUI
T5 construct: made in house
Excerpt: as §1
By varying the amounts of DNA methyltransferase, this assay is used to investigate the enzymatic activities of the different DNA methyltransferases with cofactors 3-9 and compare them to the enzymatic activities with the natural cofactor 1. […]
Two fold serial dilutions (20 μL) of M.SssI-Q142A (starting with 3300 ng, 73 pmol) in buffer (10 mM Tris hydrochloride, 50 mM sodium chloride, 1 mM dithiothreitol, pH 7.9), phage lambda DNA (1 μg, 31.3 fmol, 3113 5′-CG-3′ recognition sequences, […] recognition sequences, MBI Fermentas) and the natural cofactor 1 (300 μM) or cofactor analogs 5 and 7 (300 μM) were incubated at 37° C. for 4 h. […] Loading buffer (10 μL, 0.25% bromphenol blue, 30% glycerol) was added to each sample, and aliquots (15 μL) were analyzed for the degree of protection by agarose gel (1%) electrophoresis.

T1 sequence (P14385 whole entry): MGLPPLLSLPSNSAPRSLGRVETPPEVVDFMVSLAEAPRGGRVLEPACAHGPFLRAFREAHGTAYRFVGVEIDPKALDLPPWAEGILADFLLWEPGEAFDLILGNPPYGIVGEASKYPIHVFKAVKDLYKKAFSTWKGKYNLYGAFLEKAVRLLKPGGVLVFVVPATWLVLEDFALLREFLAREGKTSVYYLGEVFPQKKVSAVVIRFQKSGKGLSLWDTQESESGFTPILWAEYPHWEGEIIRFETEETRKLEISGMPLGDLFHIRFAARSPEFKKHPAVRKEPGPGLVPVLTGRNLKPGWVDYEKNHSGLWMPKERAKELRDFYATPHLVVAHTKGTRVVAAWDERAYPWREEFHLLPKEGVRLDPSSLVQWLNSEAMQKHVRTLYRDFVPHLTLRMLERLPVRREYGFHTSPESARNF
T2 sequence (P14385 whole entry V21G): as the sequence (P14385 whole entry) above, with V21G counted along it
T5 sequence (P15840 whole entry Q142A): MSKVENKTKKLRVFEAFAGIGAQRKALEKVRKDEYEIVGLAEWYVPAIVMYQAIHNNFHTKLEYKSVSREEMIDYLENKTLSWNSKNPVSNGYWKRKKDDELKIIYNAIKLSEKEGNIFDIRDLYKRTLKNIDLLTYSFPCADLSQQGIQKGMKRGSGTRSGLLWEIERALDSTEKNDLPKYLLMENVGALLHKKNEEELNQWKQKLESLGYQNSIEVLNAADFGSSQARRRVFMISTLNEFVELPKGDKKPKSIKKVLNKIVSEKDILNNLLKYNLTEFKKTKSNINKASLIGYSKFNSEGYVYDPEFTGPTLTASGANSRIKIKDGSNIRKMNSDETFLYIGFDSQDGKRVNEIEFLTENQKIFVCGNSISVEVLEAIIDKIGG
T4 sequence (P05102 whole entry Q82A): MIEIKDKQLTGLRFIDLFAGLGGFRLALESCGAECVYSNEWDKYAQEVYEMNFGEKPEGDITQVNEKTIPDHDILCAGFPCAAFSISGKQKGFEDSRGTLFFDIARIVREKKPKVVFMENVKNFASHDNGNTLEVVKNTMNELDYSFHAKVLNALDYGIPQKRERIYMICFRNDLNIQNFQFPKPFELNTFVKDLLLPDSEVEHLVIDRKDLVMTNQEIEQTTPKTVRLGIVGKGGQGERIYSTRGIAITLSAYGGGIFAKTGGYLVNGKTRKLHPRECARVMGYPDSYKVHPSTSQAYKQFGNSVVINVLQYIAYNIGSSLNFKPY
T3 sequence (P05102 whole entry): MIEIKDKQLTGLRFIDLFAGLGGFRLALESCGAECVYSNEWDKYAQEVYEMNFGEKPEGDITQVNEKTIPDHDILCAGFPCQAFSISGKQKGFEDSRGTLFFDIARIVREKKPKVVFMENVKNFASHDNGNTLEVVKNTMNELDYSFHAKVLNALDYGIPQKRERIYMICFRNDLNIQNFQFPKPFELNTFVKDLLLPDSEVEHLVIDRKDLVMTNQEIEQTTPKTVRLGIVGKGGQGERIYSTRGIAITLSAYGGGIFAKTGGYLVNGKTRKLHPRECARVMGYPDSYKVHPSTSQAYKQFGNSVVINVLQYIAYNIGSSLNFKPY

| SMILES | specific activity of M.TaqI with the cofactor [1] [u/μg] | specific activity of M.TaqI-V21G with the cofactor [2] [u/μg] | cofactor function for M.TaqI (transfer of group Z-R to adenine-N6) [3] | specific activity of M.HhaI with the cofactor [4] [u/μg] | specific activity of M.HhaI-Q82A with the cofactor [5] [u/μg] | specific activity of M.BcnIB with the cofactor [6] [u/μg] | specific activity of M.SssI-Q142A with the cofactor [7] [u/μg] |
| --- | --- | --- | --- | --- | --- | --- | --- |
| Nc1ncnc2c1ncn2C1OC(C[S+](CCC(N)C(=O)O)Cc2ccccc2)C(O)C1O (mixture of isomers) [Cofactor 9] | 640 | 2560 | functions as a cofactor |  |  |  |  |
| C[S+](CCC(N)C(=O)O)CC1OC(n2cnc3c(N)ncnc32)C(O)C1O (stereo not drawn) [Cofactor 1] | 40960 | 320 |  | 460 | 115 | 444 | 20 |
